Data as given in ChEMBL document CHEMBL5113390, “Design, synthesis and antitumor evaluation of novel 1H-indole-2-carboxylic acid derivatives targeting 14-3-3η protein” (Eur J Med Chem, 2022).
pIC50, pKd: −log10 of the molar value. Activity calls are given as the source filed them. The calls are words filed in the database; no cut-off is given here.

Assays:
Bel-7402 = test: Antiproliferative activity against human Bel-7402 cells assessed as reduction in cell viability incubated for 72 hrs by MTT assay; type: functional, cell-based; conditions: Bel-7402, 72 h
HepG2 = test: Antiproliferative activity against human HepG2 cells assessed as reduction in cell viability incubated for 72 hrs by MTT assay; type: functional, cell-based; conditions: HepG2, 72 h
Hep 3B2 [1] = test: Antiproliferative activity against human Hep3B cells assessed as reduction in cell viability incubated for 72 hrs by MTT assay; type: functional, cell-based
Bel7402/5-FU = test: Antiproliferative activity against human BEL-7402/5-FU cells overexpressing 14-3-3 eta assessed as reduction in cell viability incubated for 72 hrs by MTT assay; type: functional, cell-based
14-3-3 protein eta = target: T1, 14-3-3 protein eta (Homo sapiens, UniProt Q04917); test: Binding affinity to 14-3-3 eta (unknown origin) assessed as dissociation constant by biolayer interferometry assay
T1 sequence (Q04917 whole entry): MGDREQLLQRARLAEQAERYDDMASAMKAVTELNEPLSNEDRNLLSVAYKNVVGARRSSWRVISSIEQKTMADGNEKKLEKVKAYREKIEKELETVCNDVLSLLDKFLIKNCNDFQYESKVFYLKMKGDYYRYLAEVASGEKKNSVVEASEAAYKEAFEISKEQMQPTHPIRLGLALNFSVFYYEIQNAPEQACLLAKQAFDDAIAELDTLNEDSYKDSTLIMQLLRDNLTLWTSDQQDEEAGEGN

[2] = target: T2, 14-3-3 protein eta (Homo sapiens) (UniProt Q04917); test: Inhibition of 14-3-3 eta in human Hep3B cells assessed as reduction in AKT phosphorylation at T308 residue measured after 24 hrs by western blot analysis; type: cell-based; conditions: dose 0.5-5 µM, DDE = dose-dependent effect
T2 sequence (whole entry): T1 sequence (Q04917 whole entry)

Hep 3B2 [3] = test: Downregulation of AKT expression in human Hep3B cells measured after 24 hrs by western blot analysis; type: functional, cell-based; conditions: dose 0.5-5 µM, DDE = dose-dependent effect
Hep 3B2 [4] = test: Antiproliferative activity against human Hep3B cells assessed as reduction in cell viability measured after 7 days by crystal violet staining based assay; type: functional; conditions: dose 1-10 µM, time 7.0 day, DDE = dose-dependent effect
Hep 3B2 [5] = test: Inhibition of cell invasion in human Hep3B cells incubated for 72 hrs by crystal violet staining based transwell assay; type: functional; conditions: dose 1-10 µM, DDE = dose-dependent effect
Hep 3B2 [6] = test: Induction of apoptosis in human Hep3B cells assessed as necrotic cells at 1 uM measured after 48 hrs by Annexin V/FITC-PI staining based flow cytometry assay (reference value: 0.12%); type: functional
Hep 3B2 [7] = test: Induction of apoptosis in human Hep3B cells assessed as early apoptotic cells at 2.5 uM measured after 48 hrs by Annexin V/FITC-PI staining based flow cytometry assay (reference value: 6.65%); type: functional
Hep 3B2 [8] = test: Induction of apoptosis in human Hep3B cells assessed as necrotic cells at 2.5 uM measured after 48 hrs by Annexin V/FITC-PI staining based flow cytometry assay (reference value: 0.12%); type: functional
Hep 3B2 [9] = test: Induction of apoptosis in human Hep3B cells assessed as viable cells at 5 uM measured after 48 hrs by Annexin V/FITC-PI staining based flow cytometry assay (reference value: 90.09%); type: functional; conditions: read-out: Activity
Hep 3B2 [10] = test: Induction of apoptosis in human Hep3B cells assessed as early apoptotic cells at 5 uM measured after 48 hrs by Annexin V/FITC-PI staining based flow cytometry assay (reference value: 6.65%); type: functional
Hep 3B2 [11] = test: Induction of apoptosis in human Hep3B cells assessed as late apoptotic cells at 5 uM measured after 48 hrs by Annexin V/FITC-PI staining based flow cytometry assay (reference value: 3.14%); type: functional
Hep 3B2 [12] = test: Induction of apoptosis in human Hep3B cells assessed as necrotic cells at 5 uM measured after 48 hrs by Annexin V/FITC-PI staining based flow cytometry assay (reference value: 0.12%); type: functional
Hep 3B2 [13] = test: Induction of apoptosis in human Hep3B cells assessed as viable cells at 10 uM measured after 48 hrs by Annexin V/FITC-PI staining based flow cytometry assay (reference value: 90.09%); type: functional; conditions: read-out: Activity
Hep 3B2 [14] = test: Induction of apoptosis in human Hep3B cells assessed as early apoptotic cells at 10 uM measured after 48 hrs by Annexin V/FITC-PI staining based flow cytometry assay (reference value: 6.65%); type: functional
Hep 3B2 [15] = test: Induction of apoptosis in human Hep3B cells assessed as upregulation of cleaved caspase-3 expression at 5 to 20 uM measured after 48 hrs by Western blot analysis; type: functional, cell-based; conditions: dose 5-20 µM
Hep 3B2 [16] = test: Induction of apoptosis in human Hep3B cells assessed as upregulation of cleaved PARP expression at 5 to 20 uM measured after 48 hrs by Western blot analysis; type: functional, cell-based; conditions: dose 5-20 µM
Hep 3B2 [17] = test: Induction of cell cycle arrest in human Hep3B cells assessed as accumulation at G0/G1 phase at 1 uM incubated for 48 hrs by flow cytometry analysis (reference value: 60.85 %); type: functional
Hep 3B2 [18] = test: Induction of cell cycle arrest in human Hep3B cells assessed as accumulation at G2/M phase at 1 uM incubated for 48 hrs by flow cytometry analysis (reference value: 8.59 %); type: functional
Hep 3B2 [19] = test: Induction of cell cycle arrest in human Hep3B cells assessed as accumulation at S phase at 2.5 uM incubated for 48 hrs by flow cytometry analysis (reference value: 30.56 %); type: functional
Hep 3B2 [20] = test: Induction of cell cycle arrest in human Hep3B cells assessed as accumulation at G2/M phase at 2.5 uM incubated for 48 hrs by flow cytometry analysis (reference value: 8.59 %); type: functional
Hep 3B2 [21] = test: Induction of cell cycle arrest in human Hep3B cells assessed as accumulation at G0/G1 phase at 5 uM incubated for 48 hrs by flow cytometry analysis (reference value: 60.85 %); type: functional
Hep 3B2 [22] = test: Induction of cell cycle arrest in human Hep3B cells assessed as accumulation at S phase at 5 uM incubated for 48 hrs by flow cytometry analysis (reference value: 30.56 %); type: functional
Hep 3B2 [23] = test: Induction of cell cycle arrest in human Hep3B cells assessed as accumulation at G2/M phase at 5 uM incubated for 48 hrs by flow cytometry analysis (reference value: 8.59 %); type: functional
hERG [24] = test: Selectivity ratio of IC50 for inhibition of hERG by automated patch clamp analysis to IC50 for antiproliferative activity against human BEL-7402/5-FU cells assessed as reduction in cell viability incubated for 72 hrs by MTT assay; type: toxicity, cell-based; conditions: read-out: Ratio IC50
hERG [25] = test: Selectivity ratio of IC50 for inhibition of hERG by automated patch clamp analysis to IC50 for antiproliferative activity against human SMMC-7721 cells assessed as reduction in cell viability incubated for 72 hrs by MTT assay; type: toxicity, cell-based; conditions: read-out: Ratio IC50
hERG [26] = test: Selectivity ratio of IC50 for inhibition of hERG by automated patch clamp analysis to IC50 for antiproliferative activity against human SNU-387 cells assessed as reduction in cell viability incubated for 72 hrs by MTT assay; type: toxicity, cell-based; conditions: read-out: Ratio IC50
[27] = Metabolic stability in human liver microsomes assessed as half life; type: ADME, Microsome
[28] = Metabolic stability in human liver microsomes assessed as intrinsic clearance; type: ADME, Microsome; conditions: read-out: CLH
[29] = Metabolic stability in rat liver microsomes assessed as half life; type: ADME, Microsome
[30] = Metabolic stability in rat liver microsomes assessed as intrinsic clearance; type: ADME, Microsome; conditions: read-out: CLH

For `COc1cccc(CNCc2c(C(=O)O)n(Cc3ccc(C)cc3)c3cc(C(C)C)ccc23)c1`, the pIC50 (Bel-7402) was 5.23, the pIC50 (HepG2) was 5.46 and the pIC50 (Hep 3B2 [1]) was 5.39. For the same compound, the pIC50 (Bel7402/5-FU) was 5.34, the pKd (14-3-3 protein eta) was 4.46 and the inhibition [2] was “Dde”. For the same compound, the inhibition (Hep 3B2 [3]) was “Dde”, the Activity (Hep 3B2 [4]) was “Dde” and the inhibition (Hep 3B2 [5]) was “Dde”. For the same compound, the Activity (Hep 3B2 [6]) was 0.38%, the Activity (Hep 3B2 [7]) was 8.74% and the Activity (Hep 3B2 [8]) was 0.27%. For the same compound, the viability at 5 µM (Hep 3B2 [9]) was 79.9%, the Activity (Hep 3B2 [10]) was 11.22% and the Activity (Hep 3B2 [11]) was 7.79%. The Activity (Hep 3B2 [12]) was 1.07%, the viability at 10 µM (Hep 3B2 [13]) was 61.9% and the Activity (Hep 3B2 [14]) was 21.73%. For the same compound, the Activity (Hep 3B2 [15]) was “Active”, the Activity (Hep 3B2 [16]) was “Active” and the Activity (Hep 3B2 [17]) was 58.63%. The Activity (Hep 3B2 [18]) was 5.79%, the Activity (Hep 3B2 [19]) was 36.4% and the Activity (Hep 3B2 [20]) was 4.47%. For the same compound, the Activity (Hep 3B2 [21]) was 58.48%, the Activity (Hep 3B2 [22]) was 37.73% and the Activity (Hep 3B2 [23]) was 3.79%. The selectivity ratio at 72 h (hERG [24]) was 5.84, the selectivity ratio at 72 h (hERG [25]) was 11.8 and the selectivity ratio at 72 h (hERG [26]) was 6.32. For the same compound, the half-life [27] was 7.31 min, the CLint scaled [28] was 238 mL/min/kg and the half-life [29] was 9.25 min. It also gave a CLint scaled [30] of 269 mL/min/kg.
